These compounds were tested on SU-DHL-4 cell line (assay: SU-DHL-4 cell proliferation assay (Cell Titer-Glo viability)). Settings: Homo sapiens; cell viability IC50 activity level, DLBCL cell line SU-DHL-4, 120 hours post-treatment; read-out: SU-DHL-4 Act.
Format: cell-based
Method in brief: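 Viability read by ATP luminescence (Cell Titer-Glo) at the start and after 120 h of growth at 37°C in 5% CO2. DLBCL cells were seeded at 500 per well with compound across 0.5 nM–10 μM in 20 points, 0.1% DMSO. A four-parameter sigmoidal fit gave IC50 as 50% of DMSO control.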

Structure (SMILES) | IC50
CC1(C)CN(C2CN(Cc3ccc(CNc4cccc5c4C(=O)N(C4CCC(=O)NC4=O)C5=O)cc3)C2)CCO1 (stereo not drawn) [Cpd 235, 4-(4-((3-(2,2-dimethylmorpholino)azetidin-1-yl)methyl)benzylamino)-2-(2,6-dioxopiperidin-3-yl)isoindoline-1,3-dione] | 0.501 to 0.75 µM
Cc1cc(CNc2cccc3c2C(=O)N(C2CCC(=O)NC2=O)C3=O)ccc1CN1CCC2(CCOCC2)CC1 (stereo not drawn) [Cpd 236, 4-(4-(3-oxa-9-azaspiro[5.5]undecan-9-ylmethyl)-3-methylbenzylamino)-2-(2,6-dioxopiperidin-3-yl)isoindoline-1,3-dione] | < 0.2 µM
CC1(C)COCCN1C1CN(Cc2ccc(CNc3cccc4c3C(=O)N(C3CCC(=O)NC3=O)C4=O)c(F)c2)C1 (stereo not drawn) [Cpd 237, 4-(4-((3-(3,3-dimethylmorpholino)azetidin-1-yl)methyl)-2-fluorobenzylamino)-2-(2,6-dioxopiperidin-3-yl)isoindoline-1,3-dione] | < 0.2 µM
Cc1cc(CNc2cccc3c2C(=O)N(C2CCC(=O)NC2=O)C3=O)ccc1CN1CC(N2CCOCC2(C)C)C1 (stereo not drawn) [Cpd 238, 4-(4-((3-(3,3-dimethylmorpholino)azetidin-1-yl)methyl)-3-methylbenzylamino)-2-(2,6-dioxopiperidin-3-yl)isoindoline-1,3-dione] | < 0.2 µM
CC1(C)COCCN1C1CN(Cc2ccc(CNc3cccc4c3C(=O)N(C3CCC(=O)NC3=O)C4=O)cc2)C1 (stereo not drawn) [Cpd 239, 4-(4-((3-(3,3-dimethylmorpholino)azetidin-1-yl)methyl)benzylamino)-2-(2,6-dioxopiperidin-3-yl)isoindoline-1,3-dione] | 0.501 to 0.75 µM
Cc1cc(CNc2cccc3c2C(=O)N(C2CCC(=O)NC2=O)C3=O)ccc1CN1CC(N2[C@H](C)COC[C@@H]2C)C1 (stereo partly drawn) [Cpd 240, 4-(4-((3-((3S,5R)-3,5-dimethylmorpholino)azetidin-1-yl)methyl)-3-methylbenzylamino)-2-(2,6-dioxopiperidin-3-yl)isoindolinne-1,3-dione] | 0.2 to 0.5 µM
O=C1CCC(N2C(=O)c3cccc(NCc4ccc(CN5CC6(CCOC6)C5)cc4F)c3C2=O)C(=O)N1 (stereo not drawn) [Cpd 241, 4-(4-(6-oxa-2-azaspiro[3.4]octan-2-ylmethyl)-2-fluorobenzylamino)-2-(2,6-dioxopiperidin-3-yl)isoindoline-1,3-dione] | < 0.2 µM
O=C1CCC(N2C(=O)c3cccc(NCc4ccc(CN5CCCOCC5)cc4F)c3C2=O)C(=O)N1 (stereo not drawn) [Cpd 242, 4-(4-((1,4-oxazepan-4-yl)methyl)-2-fluorobenzylamino)-2-(2,6-dioxopiperidin-3-yl)isoindoline-1,3-dione] | 0.2 to 0.5 µM
Cc1cc(CNc2cccc3c2C(=O)N(C2CCC(=O)NC2=O)C3=O)ccc1CN1CC2(CCOC2)C1 (stereo not drawn) [Cpd 243, 4-(4-(6-oxa-2-azaspiro[3.4]octan-2-ylmethyl)-3-methylbenzylamino)-2-(2,6-dioxopiperidin-3-yl)isoindoine-1,3-dione] | < 0.2 µM
Cc1cc(CNc2cccc3c2C(=O)N(C2CCC(=O)NC2=O)C3=O)ccc1CN1CCCOCC1 (stereo not drawn) [Cpd 244, 4-(4-((1,4-oxazepan-4-yl)methyl)-3-methylbenzylamino)-2-(2,6-dioxopiperidin-3-yl)isoindoline-1,3-dione] | 0.501 to 0.75 µM
CC1(C)CN(C2CN(Cc3ccc(CNc4cccc5c4C(=O)N(C4CCC(=O)NC4=O)C5=O)c(F)c3)C2)CCO1 (stereo not drawn) [Cpd 245, 4-(4-((3-(2,2-dimethylmorpholino)azetidin-1-yl)methyl)-2-fluorobenzylamino)-2-(2,6-dioxopiperidin-3-yl)isoindoline-1,3-dione] | < 0.2 µM
O=C1CCC(N2C(=O)c3cccc(NCc4ccc(CN5CC(N6C7CCC6COC7)C5)cc4F)c3C2=O)C(=O)N1 (stereo not drawn) [Cpd 246, 4-(4-((3-(3-oxa-8-azabicyclo[3.2.1]octan-8-yl)azetidin-1-yl)methyl)-2-fluorobenzylamino)-2-(2,6-dioxopiperidin-3-yl)isoindoline-1,3-dione] | < 0.2 µM
Cc1cc(CNc2cccc3c2C(=O)N(C2CCC(=O)NC2=O)C3=O)ccc1CN1CC(N2C3CCC2COC3)C1 (stereo not drawn) [Cpd 247, 4-(4-((3-(3-oxa-8-azabicyclo[3.2.1]octan-8-yl)azetidin-1-yl)methyl)-3-methylbenzylamino)-2-(2,6-dioxopiperidin-3-yl)isoindoline-1,3-dione] | < 0.2 µM
O=C1CCC(N2C(=O)c3cccc(NCc4ccc(CN5CC(N6C7CCC6COC7)C5)cc4)c3C2=O)C(=O)N1 (stereo not drawn) [Cpd 248, 4-(4-((3-(3-oxa-8-azabicyclo[3.2.1]octan-8-yl)azetidin-1-yl)methyl)benzylamino)-2-(2,6-dioxopiperidin-3-yl)isoindoline-1,3-dione] | < 0.2 µM
C[C@@H]1COC[C@H](C)N1C1CN(Cc2ccc(CNc3cccc4c3C(=O)N(C3CCC(=O)NC3=O)C4=O)c(F)c2)C1 (stereo partly drawn) [Cpd 249, 4-(4-((3-((3S,5R)-3,5-dimethylmorpholino)azetidin-1-yl)methyl)-2-fluorobenzylamino)-2-(2,6-dioxopiperidin-3-yl)isoindoline-1,3-dione] | < 0.2 µM

Reference: US11358952B2, “Substituted 4-aminoisoindoline-1,3-dione compounds, compositions thereof, and methods of treatment therewith” (Celgene Corporation, priority 2018, dated 2022)
